Read-outs that look alike come from different tables or passages of the source.
Tested on: PrPsc signal in buffy coat (scrapie blood leukocytes)
Assay type: cell-based, sheep
Settings: for PrPsc signal from the buffy coat (OD): additive 5 mM final in whole blood at collection, stored 24 h at 4° C. or room temperature; for preservation of the PrPsc harbored in the buffy coat of blood: scrapie sheep of both ARQ/ARQ and VRQ/VRQ genotypes, additive in blood, stored for at least 24 h
[1] = pre-clinical scrapie sheep #1 (ARQ/ARQ), FIG. 1
[2] = pre-clinical scrapie sheep #2 (ARQ/ARQ), FIG. 2

| Compound | percentage loss of PrPsc signal relative to sample processed immediately | PrPsc signal from the buffy coat (OD) [1] | PrPsc signal from the buffy coat (OD) [2] | preservation of the PrPsc harbored in the buffy coat of blood | detection signal in buffy coat fractions of blood samples (scrapie animals, samples processed 24 hours post-collection) |
| --- | --- | --- | --- | --- | --- |
| oxidized L-glutathione | lack of effect |  |  |  |  |
| O=C(O)CN(CCOCCOCCN(CC(=O)O)CC(=O)O)CC(=O)O [EGTA, ethylene glycol tetraacetic acid] |  | preserve the PrPsc signal | preserve the PrPsc signal | allow for the preservation of the PrPsc |  |
| N[C@@H](CCC(=O)N[C@@H](CS)C(=O)NCC(=O)O)C(=O)O [L-glutathione (reduced)] |  | preserve the PrPsc signal | preserve the PrPsc signal | allow for the preservation of the PrPsc | can preserve the detection signal |
